According to patent publication US9605024B2, “PAR4 agonist peptides” (Bristol-Myers Squibb Company, priority 2012, dated 2017):

What was measured:
[1] = molecular target: protease-activated receptor type 4 (PAR4) (Homo sapiens (Human), UniProt Q96RI0); conditions: abstract of Lee et al., J. Med. Chem. 2001; cited from earlier work
[2] = test system: washed platelets; assay: PAR4 agonist peptide induced platelet aggregation assay (washed platelets); type: cell-based, human; conditions: agonist activity
Protocol: Human blood was collected in ACD (85 mM tri-sodium citrate, 78 mM citric acid, 110 mM D-glucose, pH 4.4) at a ratio of 1.4 ml per 10 ml blood. PRP was isolated by centrifugation at 170 g for 14 minutes and platelets were further pelleted by centrifugation at 1300 g for 6 minutes. Platelets were washed once with 10 ml ACD containing 1 mg/ml bovine serum albumin.
The ability of the compounds of the current invention to induce platelet aggregation was tested in a 96-well microplate aggregation assay format. Briefly, a washed platelet suspension with varying concentrations of agonist compounds was assayed. Aggregation was initiated by the addition of a titered test agonist peptide. The plate was then placed into a 37° C. Molecular Devices SPECTRAMAX® Plus Plate Reader (Sunnyvale, Calif.). […] The plate also included an untreated control sample which served as ODmax, while buffer containing no platelets was the ODmin. Platelet aggregation was determined by subtracting the ODmax from the ODmin for the 100% aggregation value. In experimental samples, the observed transmission was subtracted from the minimum value and then compared to the 100% aggregation value to determine the percentage aggregation. ED50 values were determined using Excel Fit software.

[3] = molecular target: T1, PAR4 (Homo sapiens (Human), UniProt Q96RI0); assay: FLIPR assay in PAR4-expressing HEK293 cells, test for antagonist activity; type: cell-based; conditions: H-Ala-Phe(4-F)-Pro-Gly-Trp-Leu-Val-Lys-Asn-Gly-NH2-induced calcium mobilization
T1 sequence (Q96RI0 18-385): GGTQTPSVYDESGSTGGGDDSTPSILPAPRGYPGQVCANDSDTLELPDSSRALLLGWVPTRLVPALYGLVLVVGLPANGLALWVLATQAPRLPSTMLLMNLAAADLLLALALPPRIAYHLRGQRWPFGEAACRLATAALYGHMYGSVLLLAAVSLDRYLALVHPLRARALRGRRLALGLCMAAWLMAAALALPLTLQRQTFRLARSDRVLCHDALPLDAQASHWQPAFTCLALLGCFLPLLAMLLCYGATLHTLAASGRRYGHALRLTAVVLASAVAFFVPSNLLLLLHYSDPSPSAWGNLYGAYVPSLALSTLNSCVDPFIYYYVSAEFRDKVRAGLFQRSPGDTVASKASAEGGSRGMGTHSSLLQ
Description: The FLIPR assay is an exemplary in vitro assay for measuring the activity of the PAR4 antagonists of the present invention. In this assay, intracellular calcium mobilization is induced in PAR4 expressing cells by a PAR4 agonist and calcium mobilization is monitored. See, e.g., Example A. The FLIPR assay is also an exemplary in vitro assay for measuring the agonist activity of PAR4 agonist peptides. See Example H.
HEK293 cells stably expressing PAR4 were generated by a standard method of transfection of human […] cDNA expression vector or by RAGE technology from Athersys Inc. (Cleveland, Ohio) and selected based on PAR4 protein expression of mRNA expression. […] These cells express endogenous PAR1 and can elicit calcium signal upon stimulation with PAR1 agonist peptide.
Counter screens for agonist activity and PAR1 antagonist activity were also performed. Briefly, HEK293 EBNA PAR4 clone 20664.1J cells were plated 24 hrs. prior to experiment in 384 well, Poly-D-Lysine coated, black, clear bottom plates (Greiner Bio-One, Monroe, N.C.). Cells were plated at 20,000 cells/well in 20 μl growth medium and incubated at 37° C. with 5% CO2 overnight. At time of assay, media was replaced with 40 μl 1× Hank's Buffered Saline Solution (HBSS) (with 10 mM HEPES) and 20 μl test compound also diluted in 1×HBSS buffer was added at various concentrations and 0.67% DMSO final concentration on the FDSS for agonist measurement. The cells were then incubated for 30 minutes at room temperature followed by addition of 20 μl of agonist peptide for antagonist measurement on the FDSS.

[4] = molecular target: T1, PAR4; assay: Gamma thrombin induced platelet aggregation assay (PRP assay); type: cell-based; conditions: platelet rich plasma
Protocol: The platelet rich plasma was isolated by centrifugation at 170 g for 14 minutes.
The ability of the compounds of the current invention to inhibit platelet aggregation induced by gamma-thrombin was tested in a 96-well microplate aggregation assay format. Briefly, PRP or washed platelet suspension (100 μl) was pre-incubated for 5 minutes at room temperature with varying concentrations of compounds. Aggregation was initiated by ˜10-50 nM gamma thrombin (Haematologic Technologies, Essex Junction, Vt.), which was titrated daily to achieve 80% platelet aggregation. Refludan at 1 U/mL (Berlex, Montville, N.J.) was added to the gamma thrombin sample to prevent PAR1 activation induced by residual alpha-thrombin contamination. The plate was then placed into a 37° C. Molecular Devices (Sunnyvale, Calif.) SPECTRAMAX® Plus Plate Reader. […] The plate also included an untreated control sample which served as ODmax, while buffer containing no platelets was the ODmin. Platelet aggregation was determined by subtracting the ODmax from the ODmin for the 100% aggregation value. In experimental samples, the observed transmission was subtracted from the minimum value and then compared to the 100% aggregation value to determine the percentage aggregation. IC50 values are determined using Excel Fit software.

[5] = TRACER phase III trial, ACS patients; cited from earlier work

Chain of protease-activated receptor type 4 (PAR4) (Q96RI0 18-385): as above

SMILES	ED50 (μM) [Platelet Aggregation] [2] [µM]	further results
CCOC(=O)c1ccc(-c2nn(Cc3ccccc3)c3ccccc23)cc1 [Compound 58]		inhibition of PAR4-dependent platelet activation [1]: selective and potent inhibitor
COc1cc(OCc2csc(C)n2)c2cc(-c3cn4nc(OC)sc4n3)oc2c1 [Example 1, 2-Methoxy-6-(6-methoxy-4-((2-methylthiazol-4-yl)methoxy)benzofuran-2-yl)imidazo[2,1-b][1,3,4]thiadiazole]	13	
COc1cc(OCc2csc(C(F)(F)F)n2)c2cc(-c3cn4nc(OC)sc4n3)oc2c1 [Example 2, 2-Methoxy-6-(6-methoxy-4-((2-(trifluoromethyl)thiazol-4-yl)methoxy)benzofuran-2-yl)imidazo[2,1-b][1,3,4]thiadiazole]		EC50 [3]: 0.42 nM; IC50 [4]: 49 nM
COc1cc(OCc2csc(-c3ccccc3)n2)c2cc(-c3cn4nc(OC)sc4n3)oc2c1 [Example 3, 2-Methoxy-6-(6-methoxy-4-((2-phenylthiazol-4-yl)methoxy)benzofuran-2-yl)imidazo[2,1-b][1,3,4]thiadiazole]	0.86	
COCCOCc1nc(COc2cc(OC)cc3oc(-c4cn5nc(OC)sc5n4)cc23)cs1 [Example 6, 2-Methoxy-6-(6-methoxy-4-((2-((2-methoxyethoxy)methyl)thiazol-4-yl)methoxy)benzofuran-2-yl)imidazo[2,1-b][1,3,4]thiadiazole]	1.1	
COc1cc(OCc2cn(-c3ccccc3)nn2)c2cc(-c3cn4nc(OC)sc4n3)oc2c1 [Example 9, 2-Methoxy-6-(6-methoxy-4-((1-phenyl-1H-1,2,3-triazol-4-yl)methoxy)benzofuran-2-yl)imidazo[2,1-b][1,3,4]thiadiazole]		EC50 [3]: 5.3 nM; IC50 [4]: > 3000 nM
COc1cc(OCc2cnnn2-c2ccccc2)c2cc(-c3cn4nc(OC)sc4n3)oc2c1 [Example 10, 2-Methoxy-6-(6-methoxy-4-((1-phenyl-1H-1,2,3-triazol-5-yl)methoxy)benzofuran-2-yl)imidazo[2,1-b][1,3,4]thiadiazole]		EC50 [3]: 3.5 nM; IC50 [4]: 2700 nM
COc1cc(OCc2csc(-c3cccc(C)c3)n2)c2cc(-c3cn4nc(OC)sc4n3)oc2c1 [Example 12]	0.97	
COc1cc(OCc2nc(-c3ccccc3)sc2C)c2cc(-c3cn4nc(OC)sc4n3)oc2c1 [Example 13]	0.67	
COc1cc(OCc2csc(C3CCOCC3)n2)c2cc(-c3cn4nc(OC)sc4n3)oc2c1 [Example 14]	12.3	
COc1cc(OCc2csc(-c3ccc(F)cc3)n2)c2cc(-c3cn4nc(OC)sc4n3)oc2c1 [Example 15]	0.63	
COc1cc(OCc2csc(-c3ccccc3Cl)n2)c2cc(-c3cn4nc(OC)sc4n3)oc2c1 [Example 16]	37	
COc1cc(OCc2csc(-c3cccc(C(F)(F)F)c3)n2)c2cc(-c3cn4nc(OC)sc4n3)oc2c1 [Example 17]	106	
COc1ccc(-c2nc(COc3cc(OC)cc4oc(-c5cn6nc(OC)sc6n5)cc34)cs2)cc1 [Example 18]	5.5	EC50 [3]: 2.5 nM; IC50 [4]: 3.6 nM
COc1cc(OCc2csc(-c3ccccc3OC)n2)c2cc(-c3cn4nc(OC)sc4n3)oc2c1 [Example 19]	1.6	
COc1cc(OCc2csc(C3CCCCC3)n2)c2cc(-c3cn4nc(OC)sc4n3)oc2c1 [Example 20]	4.1	

SMILES	ED50 (μM) [Platelet Aggregation] [2] [µM]	further results
COc1cc(OCc2csc(N3CCCCC3)n2)c2cc(-c3cn4nc(OC)sc4n3)oc2c1 [Example 21]	2.4	
COc1cc(OCc2csc(N3CCN(C)CC3)n2)c2cc(-c3cn4nc(OC)sc4n3)oc2c1 [Example 22]	1.2	
CCc1nc(COc2cc(OC)cc3oc(-c4cn5nc(OC)sc5n4)cc23)cs1 [Example 23]	0.79	
COc1cc(OCc2csc(-c3ccc(F)cc3F)n2)c2cc(-c3cn4nc(OC)sc4n3)oc2c1 [Example 24]	0.69	
COc1cc(OCc2csc(-c3cccc(F)c3)n2)c2cc(-c3cn4nc(OC)sc4n3)oc2c1 [Example 25]	52	
COc1cc(OCc2csc(-c3ccccc3F)n2)c2cc(-c3cn4nc(OC)sc4n3)oc2c1 [Example 26]	1.0	
COc1cc(OCc2csc(-c3ccc(Cl)cc3)n2)c2cc(-c3cn4nc(OC)sc4n3)oc2c1 [Example 27]	1.7	
COc1cc(OCc2csc(-c3ccncc3)n2)c2cc(-c3cn4nc(OC)sc4n3)oc2c1 [Example 28]	0.76	
COc1cc(OCc2csc(-c3ccc(OC(F)(F)F)cc3)n2)c2cc(-c3cn4nc(OC)sc4n3)oc2c1 [Example 29]	1.0	
COc1cc(OCc2csc(-c3cccnc3)n2)c2cc(-c3cn4nc(OC)sc4n3)oc2c1 [Example 30]	1.7	
COc1cc(OCc2csc(N3CCC(F)(F)CC3)n2)c2cc(-c3cn4nc(OC)sc4n3)oc2c1 [Example 31]	0.63	
COc1cc(OCc2csc(-c3cnccn3)n2)c2cc(-c3cn4nc(OC)sc4n3)oc2c1 [Example 32]	0.61	
COc1cc(OCc2csc(-c3cc(C)on3)n2)c2cc(-c3cn4nc(OC)sc4n3)oc2c1 [Example 33]	1.2	EC50 [3]: 1.7 nM; IC50 [4]: 38 nM
COc1cc(OCc2cscn2)c2cc(-c3cn4nc(OC)sc4n3)oc2c1 [Example 34]	3.0	
COc1nn2cc(-c3cc4c(OCc5csc(-c6ccccc6)n5)cc(F)cc4o3)nc2s1 [Example 36, 6-(6-Fluoro-4-((2-phenylthiazol-4-yl)methoxy)benzofuran-2-yl)-2-methoxyimidazo[2,1-b][1,3,4]thiadiazole]		EC50 [3]: 1 nM; IC50 [4]: 48 nM
CCOC(=O)N[C@@H]1CC[C@@H]2[C@@H](C1)C[C@H]1C(=O)O[C@H](C)[C@H]1[C@H]2/C=C/c1ccc(-c2cccc(F)c2)cn1 [vorapaxar]		cardiovascular events [5]: did not significantly reduce cardiovascular events; risk of major bleeding [5]: significantly increased the risk of major bleeding
